From patent US6242452A, “7-aminopyrido[2,3-D]pyrimidine derivatives” (Nippon Zoki Pharmaceutical Co., Ltd., priority 1998, dated 2001)
Each block holds one compound with its values, some of them ahead of it.

Key:
[1] = test system: airway smooth muscle isolated from guinea pigs; assay: Relaxing action to smooth muscle of airway of guinea pigs (histamine-constricted); format: cell-based; conditions: Cavia porcellus; guinea pig airway, constricted with 10^-4 M histamine, cumulative addition; read-out: EC50, concentration showing 50% of the maximum reaction (relaxation)
Source text: […] Action to Smooth Muscle of Airway of Guinea Pigs A guinea pig was killed by draining out the blood, the airway was isolated, and four airway pieces having a width of about 1 cm cut along the cartilage were connected by silk yarn to prepare an airway smooth muscle sample. The sample was hung with a load of about 0.5 g in a 5-mL Magnus vessel filled with a Tyrode solution and aerated with a mixed gas (95% O2 and 5% CO2). […] This was repeatedly treated with 10^-5 M of histamine and, after confirming that the constriction became constant, it was treated with 10^-4 M of histamine. After the maximum constriction reaction of the smooth muscle became constant, the test compound was added thereto starting from a low concentration cumulatively to investigate the relaxing action. […] Pat. […] Pat. No. 4,808,587 to Go et al and in U.S. Pat. No. 5,776,942 to Furukawa et al) and theophylline were used as control agents.

[2] = test system: smooth muscle of blood vessel isolated from rats; assay: Influence on continuous constriction of smooth muscle of blood vessel isolated from rats (noradrenaline-constricted pulmonary main artery); format: cell-based; conditions: rat pulmonary main artery, constricted with 10^-7 M noradrenaline, 37° C.; read-out: EC50, concentration showing 50% of the maximum reaction (relaxation)
Experimental: Influence on Continuous Constriction of […] Smooth Muscle of Rats
The back of the head of a rat was struck to cause a cerebral concussion, carotid arteries on both sides were immediately cut and the pulmonary main artery was isolated. The isolated artery was fully aerated with a mixed gas (95% O2 and 5% CO2), placed in a Krebs-Henselite solution warmed at 37° C., excessive tissues were removed as much as possible and a spiral sample (having a width of about 2 mm and a length of 15 mm) was prepared according to a method of Furchgott, et al. The blood vessel sample was hung with a load of about 0.5 g in a 5-mL Magnus vessel filled with a Krebs-Henseleit solution and aerated with a mixed gas (95% O2 and 5% CO2). After the sample was allowed to stand for 30 minutes to one hour, it was treated with noradrenaline (final concentration: 10^-7 M) and the constricting reaction was amplified via an amplifier for blood pressure using an FD pickup and recorded on a recorder. Noradrenaline (10^-7 M) was repeatedly applied and, after confirming that the constriction became constant, 10^-7 M of noradrenaline was applied. After the maximum shrinking reaction of the smooth muscle became constant, the test compound was added thereto starting from a low concentration cumulatively to investigate the relaxing action. A dose vs. reaction curve was prepared from the isotonic reaction of various concentrations of the test compound and an EC50, a concentration showing 50% of the maximum reaction, was determined.

[3] = Concentration in blood of guinea pigs; format: in vivo; conditions: oral, 30 mg/kg in 1% methyl cellulose, plasma, HPLC; for AUC / Cmax / half-life / Tmax: guinea pig; for AUC: read-out: AUC 0-lim, area under a curve of concentration in blood vs. time; for Cmax: read-out: Cmax, maximum concentration in blood; for half-life: read-out: T1/2, half life in blood (converted); for Tmax: read-out: Tmax, time required for achieving the maximum concentration in blood
Experimental: Concentration in Blood of Guinea Pigs
Each test substance was orally administered at a dose of 30 mg/kg. It was suspended in 1% methyl cellulose and made into a preparation so as to make the administering dose 5 mL/kg. A group consisted of four animals and blood was collected after 30 minutes, 1 hour, 2 hours, 4 hours, 6 hours and 24 hours from the administration. (A feed was given after collection of the blood after 6 hours). Thus, each about […] (corresponding to four capillary tubes) of blood were collected with intervals using a heparintreated capillary tube and plasma was separated by a hematocrit centrifuge to prepare a plasma sample. A plasma sample of about […] was preserved at -80° C. until the measurement. Methanol ([…]) was added to […] of the plasma followed by mixing, the mixture was centrifuged at 1500×g for ten minutes at […] and the separated supernatant liquid was filtered through a membrane filter of […]. The filtrate was used as a sample for an HPLC, analyzed under the analyzing condition that the column was 100 mm×4.6 mm (inner diameter) of TSK-gel Super ODS, the flow rate was 1.0 mL/minute, the column temperature was 40° C., an injection amount was […], detection was done by UV of 225 nm and the mobile phase was water-acetonitrile (75:25 in terms of % by volume) and the maximum concentration in blood (Cmax), time required for achieving the maximum concentration in blood (Tmax), half life in blood (T1/2) and area under a curve of concentration in blood vs. time (AUC 0-lim) were determined. RS-25344 (Cell Signalling, 7(5), 527 (1995); Mol. Pharmacol., 48, 616 (1995)) and CR-77059 (J. Med. Chem., 34, 624 (1991); J. Pharmacol. Exp. Ther., 272, 3,1313 (1995)) were used as control drugs.

Mice = assay: Influence on general symptoms of mice (modified Irwin's method); format: in vivo; conditions: for Death: oral, 5 mice per group, until the next day
Experimental: Influence on General Symptoms of Mice
Mice having no abnormality in their appearance before administration of the test drugs were selected, and five mice were used for each group. Oral administration of the test compound was carried out and, 30 minutes, one hour and two hours thereafter, observations were conducted according to the modified method of Irwin's method for observing the general symptoms of mice. Degree of the symptom was evaluated in terms of (+) and (-) and, when the symptom was apparently severe, it was mentioned as (++). Also, death was observed until the next day of the administration.
1) Suppression of spontaneous motility: When mice were transferred from a home cage to a cage for symptom observation and, if motion of the mice was less than the non-administered group at that time, that was evaluated as (+).
2) Muscle relaxation: When forefeet of mice were hung on a wire stretched horizontally so that the mice were hung by means of the forefeet and, if their reaction at that time for climbing up the wire took a longer time than the non-administered group, that was evaluated as (+).
4) Blepharoptosis: If 1/4 or more was closed as compared with the non-administered group, that was evaluated as (+).
5) Salivation: If salivation was noted a little around the mouth, that was evaluated as (+).
6) Death: If dead case was noted, that was mentioned as such.
5-Amino-1,3-diethyl-1,2,3,4-tetrahydropyrido[2,3-d]-pyrimidine-2,4-dione (Control Compound B; a compound mentioned in Japanese Laid-Open Patent Publication Sho-63/45279 and in U.S. Pat. Nos. 4,808,587 and 5,776,942) was used as a control drug.

EC50 [1]: 0.021 µM
Compound: Nc1ccc2c(=O)n(Cc3cccs3)c(=O)n(-c3ccccc3)c2n1 [Compound 37, 7-amino-1,2,3,4-tetrahydro-1-phenyl-3-(2-thienylmethyl)pyrido [2,3-d]pyrimidine-2,4-dione]

EC50 [1]: 0.04 µM
Compound: Nc1ccc2c(=O)n(Cc3ccco3)c(=O)n(-c3ccccc3)c2n1 [Compound 38, 7-amino-3-(2-furfuryl)-1,2,3,4-tetrahydro-1-phenylpyrido [2,3-d]pyrimidine-2,4-dione]

EC50 [1]: 0.061 µM
EC50 [2]: > 100 µM
Compound: COc1cc(OC)cc(-n2c(=O)n(Cc3ccncc3)c(=O)c3ccc(N)nc32)c1 [Compound 18, 7-amino-1-(3,5-dimethoxyphenyl)-1,2,3,4-tetrahydro-3-(4-picolyl)pyrido[2,3-d]pyrimidine-2,4-dione]

EC50 [1]: 0.045 µM
Compound: COc1ccc(Cn2c(=O)c3ccc(N)nc3n(-c3ccccc3)c2=O)cc1 [Compound 28, 7-amino-1,2,3,4-tetrahydro-3-(4-methoxybenzyl)-1-phenylpyrido[2,3-d]pyrimidine-2,4-dione]

Concentration in blood (in words, Table 6) [3]: less than identification limit
Compound: COC(=O)c1cccc(-n2c(=O)n(Cc3ccccc3)c(=O)c3cccnc32)c1 [CP-77059, reference compound]

Compound: CCn1c(=O)c2ccc(N)nc2n(-c2cc(OC)cc(OC)c2)c1=O [Compound 5, 7-amino-3-ethyl-1-(3,5-dimethoxyphenyl)-1,2,3,4-tetrahydropyrido[2,3-d]pyrimidine-2,4-dione]
AUC [3]: 458 µg·h/mL
Cmax [3]: 30 µg/mL
half-life [3]: 12.1 h
Tmax [3]: 3 h
Blepharoptosis (Mice; mouse, in vivo, po, 1000 mg/kg): (+) × 3
Muscle relaxation (Mice; mouse, in vivo, po, 1000 mg/kg): (+) × 3
Suppression of spontaneous motility (Mice; mouse, in vivo, po, 1000 mg/kg): (+) × 2
Death (Mice; 1000 mg/kg): 0
EC50 [1]: 1.7 µM
EC50 [2]: > 100 µM

EC50 [1]: 1.01 µM
Compound: CCn1c(=O)c2ccc(N)nc2n(CC)c1=O [Control Compound A, 7-Amino-1,3-diethyl-1,2,3,4-tetrahydropyrido-[2,3-d]pyrimidine-2,4-dione, reference compound]

Concentration in blood (in words, Table 6) [3]: less than identification limit
Compound: O=c1c2cccnc2n(-c2cccc([N+](=O)[O-])c2)c(=O)n1Cc1ccncc1 [RS-25344, reference compound]

EC50 [1]: 0.023 µM
EC50 [2]: 50.1 µM
Compound: Nc1ccc2c(=O)n(Cc3ccccc3)c(=O)n(-c3ccccc3)c2n1 [Compound 16, 7-amino-3-benzyl-1,2,3,4-tetrahydro-1-phenylpyrido[2,3-d]pyrimidine-2,4-dione]

AUC [3]: 134 µg·h/mL
Cmax [3]: 10.1 µg/mL
half-life [3]: 9.8 h
Tmax [3]: 2.3 h
EC50 [1]: 0.21 µM
EC50 [2]: > 100 µM
Compound: COc1cc(OC)cc(-n2c(=O)n(CC(C)C)c(=O)c3ccc(N)nc32)c1 [Compound 15]

EC50 [1]: 0.32 µM
Compound: COc1cc(OC)cc(-n2c(=O)n(Cc3ccccc3)c(=O)c3ccc(N)nc32)c1 [Compound 8, 7-amino-3-benzyl-1-(3,5-dimethoxyphenyl)-1,2,3,4-tetrahydropyrido[2,3-d]pyrimidine-2,4-dione]

Compound: CCCCn1c(=O)c2ccc(N)nc2n(-c2cc(OC)cc(OC)c2)c1=O [Compound 7, 7-amino-3-butyl-1-(3,5-dimethoxyphenyl)-1,2,3,4-tetrahydropyrido[2,3-d]pyrimidine-2,4-dione]
AUC [3]: 28.6 µg·h/mL
Cmax [3]: 1.6 µg/mL
half-life [3]: 131 h
Tmax [3]: 15 h
Blepharoptosis (Mice; mouse, in vivo, po, 300 mg/kg): (+) × 1
Muscle relaxation (Mice; mouse, in vivo, po, 300 mg/kg): (+) × 2
Suppression of spontaneous motility (Mice; mouse, in vivo, po, 300 mg/kg): (+) × 2
Muscle relaxation (Mice; mouse, in vivo, po, 1000 mg/kg): (+) × 3
Death (Mice; 300 mg/kg): 0
Death (Mice; 1000 mg/kg): 0
EC50 [1]: 0.59 µM

EC50 [1]: 0.076 µM
Compound: Nc1ccc2c(=O)n(Cc3ccc(F)cc3)c(=O)n(-c3ccccc3)c2n1 [Compound 29, 7-amino-3-(4-fluorobenzyl)-1,2,3,4-tetrahydro-1-phenylpyrido[2,3-d]pyrimidine-2,4-dione]

Compound: CCCn1c(=O)c2ccc(N)nc2n(-c2cc(OC)cc(OC)c2)c1=O [Compound 6, 7-amino-1-(3,5-dimethoxyphenyl)-1,2,3,4-tetrahydro-3-propylpyrido[2,3-d]pyrimidine-2,4-dione]
AUC [3]: 256 µg·h/mL
Cmax [3]: 13.7 µg/mL
half-life [3]: 28.4 h
Tmax [3]: 4 h
Blepharoptosis (Mice; mouse, in vivo, po, 300 mg/kg): (+) × 1
Suppression of spontaneous motility (Mice; mouse, in vivo, po, 300 mg/kg): (+) × 1
Blepharoptosis (Mice; mouse, in vivo, po, 1000 mg/kg): (+) × 2
Muscle relaxation (Mice; mouse, in vivo, po, 1000 mg/kg): (+) × 2
Suppression of spontaneous motility (Mice; mouse, in vivo, po, 1000 mg/kg): (+) × 2
Death (Mice; 300 mg/kg): 0
Death (Mice; 1000 mg/kg): 0
EC50 [1]: 0.4 µM
EC50 [2]: > 100 µM

Compound: CCn1c(=O)c2c(N)ccnc2n(CC)c1=O [Control Compound B, 5-Amino-1,3-diethyl-1,2,3,4-tetrahydropyrido[2,3-d]-pyrimidine-2,4-dione, reference compound]
Blepharoptosis (Mice; mouse, in vivo, po, 100 mg/kg): (+) × 2
Muscle relaxation (Mice; mouse, in vivo, po, 100 mg/kg): (+) × 3
Passiveness (Mice; mouse, in vivo, po, 100 mg/kg): (+) × 1
Suppression of spontaneous motility (Mice; mouse, in vivo, po, 100 mg/kg): (+) × 3
Suppression of spontaneous motility (Mice; mouse, in vivo, po, 300 mg/kg): (+) × 3
Death (Mice; 100 mg/kg): 0
Death (Mice; 300 mg/kg): 0
EC50 [1]: 0.83 µM

EC50 [1]: 0.027 µM
Compound: Nc1ccc2c(=O)n(Cc3ccsc3)c(=O)n(-c3ccccc3)c2n1 [Compound 39, 7-amino-1,2,3,4-tetrahydro-1-phenyl-3-(3-thienylmethyl)pyrido [2,3-d]pyrimidine-2,4-dione]

Compound: Cn1c(=O)c2[nH]cnc2n(C)c1=O [theophylline, reference compound]
EC50 [1]: 51 µM

EC50 [1]: 0.019 µM
Compound: Nc1ccc2c(=O)n(Cc3ccncc3)c(=O)n(-c3ccccc3)c2n1 [Compound 17, 7-amino-1,2,3,4-tetrahydro-1-phenyl-3-(4-picolyl) pyrido[2,3-d]pyrimidine-2,4-dione]
